Data on three molecules can be found in patent US20120225097A1, “PIPERAZINECARBOXAMIDE DERIVATIVE USEFUL AS A MODULATOR OF FATTY ACID AMIDE HYDROLASE (FAAH)” (priority 2009, published 2012).

SMILES strings stand for the structures. “And” between values parts separate entries of the source, which are not always exact repeats. Equal entries are not always repeated. Structures can show the parent of a compound that is named as a salt.

Data set [1] deals with Langendorff isolated heart. The data set can be described thus: Assay Method 3: Langendorff isolated heart protocol. Set-up: species or system Sprague-Dawley rats. Particulars: isolated rat heart; for effect on left ventricular developed pressure (LVDevP): 30 μM; for effect on left ventricular systolic pressure (LVSP): maximum concentration tested 30 μM; for hearts showing greater than 30% slowing of heart rate: perfused at 30 μM; for hearts showing greater than 30% heart rate slowing: bath concentration 26 μM. The method, then:
Langendorff Isolated Heart Protocol
Male Sprague-Dawley rats (300-500 g) were anesthetized by an intraperitoneal injection of sodium pentobarbital (50 mg/kg), and then euthanized via cardiectomy. Hearts were rapidly removed, mounted on a
A ventricular drain and fluid-filled latex balloon was secured in the left ventricle with a purse string suture at the atrial appendage. Hearts were not paced. […] The hearts were maintained at approximately 37° C. while suspended in a glass chamber and bathed with Krebs-Henseleit buffer. The latex balloon in the left ventricle (LV) was expanded with water to achieve a LV end-diastolic pressure (LVEDP) of approximately 10-15 mmHg. The balloon was connected via tubing to a pressure transducer to measure LVEDP, LV […] pressure (LVDP) and LV systolic pressure (LVSP). Coronary perfusion pressure (CPP) was measured with a pressure transducer connected to a side-arm port of the aortic cannula.
Individual hearts were equilibrated for approximately 10-15 minutes. Following this equilibration period, baseline measurements were collected for approximately 15 minutes. After this period, a first heart was exposed to test compound for a total 75 min (comprising five increasing concentrations of test compound for approximately 15 minutes at each concentration) with measurements collected continuously. Test compound was dissolved in DMSO and then added directly to the experiment perfusion medium.
A one mL sample of perfusion medium was taken from the heart exudate at the end of each 15 minute monitoring period. The samples were frozen on dry ice, stored in a freezer set to maintain −80° C. until analysis. At the conclusion of the experiment, the hearts were frozen with liquid nitrogen and stored in a freezer set to maintain a temperature of −80° C. until analyzed.

Data set [2] deals with T1, rat FAAH (Rattus norvegicus, UniProt P97612).
T1 construct: expressed in transfected cells
T1 sequence (P97612 1-579): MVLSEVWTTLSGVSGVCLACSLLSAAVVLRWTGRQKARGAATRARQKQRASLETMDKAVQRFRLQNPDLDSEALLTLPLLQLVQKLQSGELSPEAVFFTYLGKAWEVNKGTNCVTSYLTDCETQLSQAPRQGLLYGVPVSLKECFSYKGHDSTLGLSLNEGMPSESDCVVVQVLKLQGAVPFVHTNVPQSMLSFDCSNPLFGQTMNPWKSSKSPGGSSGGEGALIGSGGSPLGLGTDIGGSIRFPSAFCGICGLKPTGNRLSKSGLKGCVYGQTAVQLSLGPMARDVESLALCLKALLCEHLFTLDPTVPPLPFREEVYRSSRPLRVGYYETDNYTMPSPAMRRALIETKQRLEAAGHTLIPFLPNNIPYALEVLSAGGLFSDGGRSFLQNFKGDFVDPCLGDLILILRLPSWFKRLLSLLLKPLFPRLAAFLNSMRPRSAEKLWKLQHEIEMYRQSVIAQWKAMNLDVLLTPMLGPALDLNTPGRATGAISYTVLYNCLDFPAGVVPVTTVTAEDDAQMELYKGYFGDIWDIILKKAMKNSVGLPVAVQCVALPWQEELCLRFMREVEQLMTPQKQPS
The data set can be described thus: Assay Method 2: FAAH assay, anandamide hydrolysis in cell homogenate. It counts as biochemical. Particulars: for IC50: average value (standard error of the mean in parenthesis), 3H-AEA 80 nM, 1 h rt. The procedure: A. Transfection of Cells with Rat FAAH
A 10-cm tissue culture dish with a confluent monolayer of SK-N-MC cells was split 2 d prior to transfection. Using sterile technique, the media was removed and the cells were detached from the dish by the addition of trypsin. One fifth of the cells were then placed onto a new 10-cm dish. Cells were grown in a 37° C. incubator with 5% CO2 in Minimal Essential Media Eagle containing 10% Fetal Bovine Serum. After 2 d, cells were approximately 80% confluent. These cells were removed from the dish with trypsin and pelleted in a clinical centrifuge. The pellet was re-suspended in 400 μL complete media and transferred to an electroporation cuvette with a 0.4 cm gap between the electrodes. Supercoiled rat FAAH cDNA (1 μg), corresponding to NCBI accession NM_024132, was added to the cells and mixed. The voltage for the electroporation was set at 0.25 kV, and the capacitance was set at 960 μF. After electroporation, the cells were diluted into complete media (10 mL) and plated onto four 10-cm dishes. Because of the variability in the efficiency of electroporation, four different concentrations of cells were plated. The ratios used were 1:20, 1:10, and 1:5, with the remainder of the cells being added to the fourth dish. The cells were allowed to recover for 24 h before adding the selection media (complete media with 600 μg/mL G418). After 10 d, dishes were analyzed for surviving colonies of cells. Dishes with well-isolated colonies were used. Cells from individual colonies were isolated and tested.
T84 frozen cell pellets or transfected SK-N-MC cells (contents of 1×15 cm culture dishes) were homogenized in 50 mL of FAAH assay buffer (125 mM Tris, 1 mM EDTA, 0.2% Glycerol, 0.02% Triton X-100, 0.4 mM Hepes, pH 9). The assay mixture consisted of 50 μL of the cell homogenate, 10 μL of the test compound, and 40 μL of anandamide [1-^3H-ethanolamine] (^3H-AEA, Perkin-Elmer, 10.3 Ci/mmol), which was added last, for a final tracer concentration of 80 nM. The reaction mixture was incubated at rt for 1 h. During the incubation, 96-well Multiscreen filter plates (catalog #MAFCNOB50; Millipore, Bedford, Mass., USA) were loaded with 25 μL of activated charcoal (Multiscreen column loader, catalog #MACL09625, Millipore) and washed once with 100 μL of MeOH. Also during the incubation, 96-well DYNEX MicroLite plates (catalog #NL510410) were loaded with 100 μL of MicroScint40 (catalog #6013641, Packard Bioscience, Meriden, Conn., USA). After the 1 h incubation, 60 μL of the reaction mixture were transferred to the charcoal plates, which were then assembled on top of the DYNEX plates using Centrifuge Alignment Frames (catalog #MACF09604, Millipore). […]

In general, IC50 refers to the concentration at which inhibition is half-maximal. For `O=C(Nc1cccnc1)N1CCN(Cc2cccc(Oc3ccc(C(F)(F)F)cc3)c2)CC1` [Example 1, N-Pyridin-3-yl-4-{3-[4-(trifluoromethyl)phenoxy]benzyl}piperazine-1-carboxamide, bis-hydrochloride dihydrate], in data set [1], the “effect on left ventricular developed pressure (LVDevP)” value was “decrease” and the “hearts showing greater than 30% slowing of heart rate” value is given as “two of five”. In addition, the “effect on left ventricular systolic pressure (LVSP)” value (from here on “effect … (LVSP)”) in data set [1] (listed as N-pyridin-3-yl-4-{3-[4-(trifluoromethyl)phenoxy]benzyl}piperazine-1-carboxamide , bis-hydrochloride dihydrate) is given as “did not induce an abrupt increase”. Also, the “effect … (LVSP)” value in data set [1] (listed as N-pyridin-3-yl-4-{3-[4-(trifluoromethyl)phenoxy]benzyl}piperazine-1-carboxamide, bis-hydrochloride dihydrate) is recorded as “did not”. Moreover, in data set [2], the IC50 amounted to 18 nM. Also, the “times more potent in in vitro assays using rat FAAH enzyme (vs 4-chlorophenyl comparator)” value in data set [2] (relative to 4-({3-[(4-chlorophenyl)oxy]phenyl}methyl)-N-pyridin-3-ylpiperazine-1-carboxamide) is recorded as “about 3.5 times”.
In the case of `O=C(Nc1cccnc1)N1CCN(Cc2cccc(Oc3ccc(Br)cc3)c2)CC1` [4-[3-(4-Bromophenoxy)benzyl]-N-pyridin-3-ylpiperazine-1-carboxamide], the “hearts showing greater than 30% heart rate slowing” value is recorded as 3/4 in data set [1] and “three of four” in data set [1] (listed as 4-[3-(4-bromophenoxy)benzyl]-N-pyridin-3-ylpiperazine-1-carboxamide bis-hydrochl). For the same molecule, in data set [2], the IC50 was determined as 22 nM.
Turning to `O=C(Nc1cccnc1)N1CCN(Cc2cccc(Oc3ccc(Cl)cc3)c2)CC1` [4-({3-[(4-Chlorophenyl)oxy]phenyl}methyl)-N-pyridin-3-ylpiperazine-1-carboxamide], in data set [1], the “effect on left ventricular developed pressure (LVDevP)” value is on record as “near-doubling”; the “effect … (LVSP)” value is given as “marked increase”; the “hearts showing greater than 30% slowing of heart rate” value was “all hearts (n=4) and 4/4”. Besides, the IC50 in data set [2] is 65 nM.
